Results on 1 compound are retold here after patent US20180327719A1, “METHOD FOR PRODUCING PANCREATIC BUD CELLS” (Kyoto University, priority 2015, published 2018).

Holding throughout (format): cell-based, human
Assay [1] deals with PDX1+/NKX6.1− cells derived from iPS cell line (585A1). In words: Cell number count after Stage 3 culture with AT7867. To be noted: 0.01 μM to 50 μM AT7867, 4 days, versus DMSO negative control (FIG. 2). Here is the method: (§1) The medium in the cell culture obtained in Stage 2-3 was changed to Improved MEM Zinc Option medium (15×10^4/ml) supplemented with 100 ng/ml KGF, 0.2 μM LDN193189, 50 ng/ml EGF (R&D systems, Inc.), indicated concentrations (0.01 μM to 50 μM) of AT7867 (Selleck Chemicals), 1% B-27 (DMSO as negative control) and the cells were further cultured for 4 days.

The test system of assay [2] is PDX1+ cells. As to the kind of experiment: Immunostaining with anti-PDX1 and anti-Ki67 antibodies in Stage 3. To be noted: 1 μM AT7867, 1 to 4 days after addition in Stage 3 (FIG. 3). Here is the method: as §1
Assay [3] deals with NKX6.1+ cells. As to the kind of experiment: Immunostaining with anti-NKX6.1 antibody after Stage 3. To be noted: indicated concentrations of AT7867, after Stage 3 (FIG. 4A, 4B). As to the method:
as §1

Assay [4] concerns PDX1+/NKX6.1+ cells. As to the kind of experiment: Double staining with anti-PDX1 and anti-NKX6.1 antibodies (flow cytometry) after Stage 3. The note with it: addition of AT7867, after Stage 3 (FIGS. 5A and B). As to the method:
as §1
For orientation: Flow cytometry measures light scatter and fluorescence of single cells or particles in a stream.

The test system of assay [5] is PDX1, PTF1A, and NKX6.1 genes. In words: Quantitative PCR of PDX1, PTF1A and NKX6.1 gene expression during Stage 3. To be noted: 1 μM AT7867, Day 0 to Day 4 of Stage 3, standardized with GAPDH, versus DMSO (FIG. 6). As to the method: In Stage the cells were cultured in the presence of 1 μM AT7867. Cells were collected every day from Day 0 to Day 4 in Stage 3 and expression of PDX1, PTF1A, and NKX6.1 genes was measured by quantitative PCR. RNAs were extracted from the cells using RNeasy kit (Qiagen) and the reverse transcription reaction was performed with ReverTra Ace qPCR RT Master Mix (Toyobo) and oligo (dT) 20 primer. The quantitative PCR was performed with SYBR Premix Ex Taq II (Takara) using StepOnePlus™ Real-Time PCR System (Applied Biosystems). The gene expression was standardized with the expression of GAPDH gene and the relative gene expression was calculated from the relative standard curve (FIG. 6). […] PTF1A and NKX6.1 are transcription factors that indicate the differentiation of the cells into pancreatic bud cells

Each structure is given as a SMILES string.

With `Clc1ccc(C2(c3ccc(-c4cn[nH]c4)cc3)CCNCC2)cc1` [AT7867], in assay [1], the “number of cells obtained in Stage 3” value is reported as “increased in a manner dependent on the concentration of AT7867”. For the same compound, the “PDX1 status of proliferated (Ki67+) cells” value in assay [2] is recorded as “proliferated cells were positive for at least PDX1”. Further, the “cells positive for at least NKX6.1” value in assay [3] is on record as “increased in a manner dependent on the concentration of AT7867”. Further, the “PDX1+/NKX6.1+ cells” value in assay [4] is “increased by the addition of AT7867”. Also, in assay [5], the “expression of NKX6.1” value is on record as “increased over time”, the “expression of PDX1” value was “increased over time” and the “expression of PTF1A” value is listed as “increased over time”.
